Laboratory results taken from BindingDB's records for doi:10.1097/00001756-199710200-00002 (Cnrs Upr 9023, 1997).
pKi: −log10 of the molar value. Where “and” joins values, the source holds several entries; their conditions need not be identical. Equal values may be shown once.

How the values were obtained:
[1] = molecular target: 5-hydroxytryptamine receptor 4 (Homo sapiens, UniProt Q13639)
[2] = molecular target: 5-hydroxytryptamine receptor 4 (Rattus norvegicus, UniProt Q62758)
Chain of 5-hydroxytryptamine receptor 4 (Rattus norvegicus, UniProt Q62758) (Q62758 whole entry): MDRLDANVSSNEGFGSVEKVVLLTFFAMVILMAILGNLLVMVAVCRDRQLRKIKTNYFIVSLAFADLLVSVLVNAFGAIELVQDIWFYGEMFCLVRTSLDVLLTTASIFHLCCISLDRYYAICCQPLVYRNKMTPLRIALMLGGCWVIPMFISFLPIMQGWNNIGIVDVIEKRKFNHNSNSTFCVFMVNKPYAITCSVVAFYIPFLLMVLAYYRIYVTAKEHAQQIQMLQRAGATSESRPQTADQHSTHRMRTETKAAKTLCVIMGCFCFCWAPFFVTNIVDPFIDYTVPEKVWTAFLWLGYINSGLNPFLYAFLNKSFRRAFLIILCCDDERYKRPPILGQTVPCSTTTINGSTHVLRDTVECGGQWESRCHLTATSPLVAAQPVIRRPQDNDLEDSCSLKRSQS

Chain of 5-hydroxytryptamine receptor 4 (Homo sapiens, UniProt Q13639) (Q13639 whole entry): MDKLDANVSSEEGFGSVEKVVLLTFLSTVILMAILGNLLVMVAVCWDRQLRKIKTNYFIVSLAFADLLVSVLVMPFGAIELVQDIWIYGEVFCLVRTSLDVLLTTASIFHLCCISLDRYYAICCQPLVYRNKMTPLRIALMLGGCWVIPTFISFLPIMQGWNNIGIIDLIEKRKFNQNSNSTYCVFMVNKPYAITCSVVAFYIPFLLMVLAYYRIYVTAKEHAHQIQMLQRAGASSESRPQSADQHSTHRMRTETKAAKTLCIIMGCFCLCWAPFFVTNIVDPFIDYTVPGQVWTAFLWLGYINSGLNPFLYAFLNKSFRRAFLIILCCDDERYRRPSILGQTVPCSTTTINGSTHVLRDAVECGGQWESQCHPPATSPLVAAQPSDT

SMILES	pKi [1]	pKi [2]
CC(C)n1c(=O)n(C(=O)NC2CC3CCC(C2)N3C)c2ccccc21 (centres undefined) [BIMU 8]	7.34	7.72
COc1ccc2[nH]c(=O)n(C(=O)OC3CC4CCC(C3)N4C)c2c1 (centres undefined) [DAU 6285]	7.73 and 7.98	7.65 and 8.27
Cn1cc(C(=O)OCC2CCN(CCNS(C)(=O)=O)CC2)c2ccccc21 [GR 113808]	10.70 and 10.05	10.70 and 10.52
COc1[nH]c2ccc(F)cc2c1C(=O)OCC1CCN(CCNS(C)(=O)=O)CC1 [GR-125487]	10.70	11.05
COc1cc(N)c(Cl)cc1C(=O)NC1CCN2CCCC1C2 (centres undefined) [NSC_3035240]		6.95
COc1cc(N)c(Cl)cc1C(=O)NC1CN2CCC1CC2 (centres undefined) [ZACOPRIDE,R]	6.55	6.73
NCCc1c[nH]c2ccc(C(N)=O)cc12 [[3H]-5-carboxamidotryptamine]		5.04
COc1ccc2[nH]cc(CCN)c2c1 [tryptamine, 5-Methoxy]	6.81	6.91
